Laboratory results from patent US20240216513A1, “FATTY ACID-BIFUNCTIONAL DEGRADER CONJUGATES AND THEIR METHODS OF USE” (Novartis AG, priority 2021, published 2024).
Like-named read-outs stand apart in the source and are kept apart here.

How the values were obtained:
[1] = BTK FAC plasma stability assay, dog plasma; assay type: in vitro ADME
[2] = test system: TMD8 tumors; assay: Efficacy in ectopic (subcutaneous) TMD8 tumor-bearing SCID/BEIGE mice, tumor volume; assay type: in vivo, mouse; details: 20 mgL/kg (unconjugated V)
Experimental: All animal experiments were performed according to procedures covered by permit number BS-1974, BS-1975 and BS-2904 issued by the Kantonales Veterinäramt Basel-Stadt and strictly adhered to the Eidgenössisches Tierschutzgesetz and the Eidgenössische Tierschutzverordnung. Female Sprague Dawley rat were obtained from Charles Rivers (Germany), female Balb/c mice from Charles Rivers (Italy) and female SCID/BEIGE (C.B-Igh-1b/GbmsTac-Prkdcscid-Lystbg N7) mice from Taconic. All the animals were housed in a pathogen-controlled environment with access to food and water ad libitum and they were identified with transponders.
Subcutaneous TMD8 tumors were induced by injecting tumor cells expanded in vitro in the right flank of SCID/BEIGE mice. As soon as the injection was finished, antagonization (naloxone, flumazenil and atipamezole injected s.c.) was injected and mice are put on a warming pad for recovery and carefully checked during that time.
For PK experiments, non-tumor bearing mice or rats were treated once (10 mL/kg) with a compound either i.v. or s.c. Serial blood samplings from the tail vein (5-20 μl) were collected during the course of the experiment. For PK/PD experiments in tumor-bearing mice, compound was administered once (10 mL/kg) either i.v. or s.c. Animals were randomized into groups of n=3 and tissue samples were collected at several time points. At the times indicated, animals were anaesthetized by exposure to 2-3% v/v isoflurane in medical oxygen. They were sacrificed without recovering from anesthetic after blood sampling into commercially prepared EDTA coated tubes (Milian, cat #TOM-14C) in order to extract plasma. The tissues were excised, weighted and rapidly frozen in liquid nitrogen. Later, tumors were cryogenic dry pulverized with the CryoPrep™ system (model CP-02, Covaris). For efficacy experiments in ectopic tumor-bearing mice, animals were randomized into groups of n=6 for a mean tumor size of 100 mm^3 and compound was administered either i.v. q3w or s.c. q2w. When implanted in brain, animals were randomized into groups of n=4 for a mean bioluminescence of 1.0-2.0E+06 [p/s]/[ρW/cm^2] and compound was administered i.v. qw. Tumor response were reported with the measures of tumor volumes or bioluminescence from the treatment start. Concentrations of compound in blood and tissues were determined simultaneously by UPLC/MS-MS. BTK and IL-10 levels in tumor were determined by Meso Scale Discovery (MSD).

[3] = In vivo pharmacokinetic study in mice (i.v. or s.c.), FAC and payload in blood; parameters: species or system mouse; details: for AUC: male, C57/B16, whole blood

Plasma stability (h) dog [1]: >48 h
Payload C0-uM (unconjugated degrader dosed, first payload cell) ([3]; API i.v., species taken as mouse, listed as note (1 umol/kg), head 10 umol/kg): 8.1 µM
AUC ([3]; iv, API i.v., species taken as mouse, listed as note (1 umol/kg), head 10 umol/kg, read-out: Payload AUC-uM.h (unconjugated degrader dosed, first payload cell)): 8.2 µM·h
AUC ([3]; sc, mouse, subcutaneous dosing, unconjugated Compound V at 1 umol/kg, read-out: Payload AUC): 8.2 µM·h
Compound: COc1ccc(C(=O)N2CCC3(CCN(CCc4ccc(-c5cc6c(-c7cc(F)cc(NC(=O)c8ccc(C(C)(C)O)cc8F)c7C)ncnc6[nH]5)cc4)CC3)CC2)cc1N1CCC(=O)NC1=O [Compound V, N-(3-(6-(4-(2-(9-(3-(2,4-Dioxotetrahydropyrimidin-1(2H)-yl)-4-methoxybenzoyl)-3,9-diazaspiro[5.5]undecan-3-yl)ethyl)phenyl)-7H-pyrrolo[2,3-d]pyrimidin-4-yl)-5-fluoro-2-methylphenyl)-2-fluoro-4-(2-hydroxypropan-2-yl)benzamide]
Dosing frequency to achieve sustained 90% regression ([2]; i.v.): 2qw (85%)
Dosing frequency to achieve sustained 90% regression ([2]; s.c.): Not tolerated
